Assay results taken from patent US10392348B2, “2-oxo-3,4-dihydroquinoline compounds as plant growth regulators” (Syngenta Participations AG, priority 2015, dated 2019).
Read-outs that look alike come from different tables or passages of the source.

Legend:
[1] = test system: corn plants (variety NK OCTET); assay: Reduced plant water use in corn (foliar spray, repeated weighing of pots); type: in vivo; conditions: Zea mays, corn plants sprayed at 500 μM, average of 6 pots
Experimental: Compounds were tested for their effect on reducing plant water use as follows. The compounds were applied by foliar spray to 12 day old corn plants (variety NK OCTET) grown in controlled environment plant growth chambers. All compounds were applied using an emulsifiable concentrate (EC) formulation that was diluted to the desired concentrations with water containing 0.4% of the adjuvant rape seed methyl ester. Plant water use during the day was assessed by repeated weighing of the pots in which the plants were grown before and after application of the compounds at the indicated times (expressed in days after application (DAA)). The water use data before application was used to correct any differences in water use arising due to non-treatment effects (e.g. due to differences in plant size). The untransformed water use values were subjected to an analysis of covariance, fitting the effect of treatment and using the baseline water use 1 day before application as a covariate. Application of the chemicals (0 DAA) takes place approximately between 08:00 and 09:30 a.m. WU is measured within day time (chamber light is on 06:00 to 20:00) at these timepoints: 0 DAA a.m. (10:30-12:50), 0 DAA p.m. (14:00-19:50), 1 DAA a.m. (07:30-12:50), 1 DAA p.m. (14:00-19:50), 2 DAA a.m. (07:30-12:50) and 2 DAA p.m. (14:00-19:50). The cumulative total WU (0-2.5 DAA) is calculated by summing the WU data mentioned above.

[2] = test system: soybean plants (variety S20-G7); assay: Reduced plant water use in soybean (foliar spray, repeated weighing of pots); type: in vivo; conditions: Glycine max, foliar, Table B1, sprayed at 500 μM, vs negative control
Method in brief: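 Compounds in blank EC formulation diluted in water with EXTRAVON 1 g/20 L, foliar-sprayed on 12-day-old soybean in growth chambers. Water use from repeated pot weighing at a.m./p.m. periods over 0-2 DAA, summed to cumulative 0-2.5 DAA; ANCOVA with pre-application baseline covariate, relative to blank-formulation control.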

[3] = 0 h, water use during day time vs negative control, 0 DAA a.m. (10:30-12:50), read-out: % WU 0 DAA AM
[4] = 0 h, water use during day time vs negative control, 0 DAA p.m. (14:00-19:50), read-out: % WU 0DAA PM
[5] = 24 h, water use during day time vs negative control, 1 DAA a.m. (07:30-12:50), read-out: % WU 1DAA AM
[6] = 24 h, water use during day time vs negative control, 1 DAA p.m. (14:00-19:50), read-out: % WU 1DAA PM
[7] = 48 h, water use during day time vs negative control, 2 DAA a.m. (07:30-12:50), read-out: % WU 2 DAA AM
[8] = 48 h, water use during day time vs negative control, 2 DAA p.m. (14:00-19:50), read-out: % WU 2 DAA PM
[9] = 60 h, cumulative total water use 0-2.5 DAA (sum of the time points) vs negative control, read-out: % WU Total 0 to 2.5 DAA
[10] = 0 h, 0 DAA a.m. (10:30-12:50), read-out: % WU 0 DAA AM
[11] = 24 h, 1 DAA a.m. (7:30-12:50), read-out: % WU 1DAA AM
[12] = 24 h, 1 DAA p.m. (14:00-19:50), read-out: % WU 1DAA PM
[13] = 48 h, 2 DAA a.m. (07:30-12:50), read-out: % WU 2 DAA AM
[14] = 48 h, 2 DAA p.m. (14:00-19:50), read-out: % WU 2 DAA PM
[15] = 60 h, cumulative total WU (0-2.5 DAA), read-out: % WU Total 0 to 2.5 DAA

Row | Structure (SMILES) | change in vivo at 500 µM [1, 3] [%] | change in vivo at 500 µM [1, 4] [%] | change in vivo at 500 µM [1, 5] [%] | change in vivo at 500 µM [1, 6] [%] | change in vivo at 500 µM [1, 7] [%] | change in vivo at 500 µM [1, 8] [%] | change in vivo at 500 µM [1, 9] [%] | melting point [°C] | change in vivo at 500 µM [2, 10] [%] | change in vivo at 500 µM [2, 11] [%] | change in vivo at 500 µM [2, 12] [%] | change in vivo at 500 µM [2, 13] [%] | change in vivo at 500 µM [2, 14] [%] | change in vivo at 500 µM [2, 15] [%]
1 | CCN1C(=O)CCc2cc(CNS(=O)(=O)c3ccc(C(F)(F)F)cc3)ccc21 [Compound 2.015, N-[(1-ethyl-2-oxo-3,4-dihydroquinolin-6-yl)methyl]-4-(trifluoromethyl)benzenesulfonamide] | -8.9 | -3.4 | -4 | -2.6 | -1.9 | -1 | -2.9 | 180 to 181 |  |  |  |  |  | 
2 | CCN1C(=O)CCc2cc(CNS(=O)(=O)/C=C/c3ccccc3)ccc21 [Compound 2.051, (E)-N-[(1-ethyl-2-oxo-3,4-dihydroquinolin-6-yl)methyl]-2-phenyl-ethenesulfonamide] | -13.2 | -8.5 | -10.7 | -8.6 | -8.7 | -6.5 | -9.1 | 134 to 137 |  |  |  |  |  | 
3 | CCN1C(=O)CCc2cc(CNS(=O)(=O)/C=C/c3cccc(Cl)c3)ccc21 [Compound 2.069, (E)-2-(3-chlorophenyl)-N-[(1-ethyl-2-oxo-3,4-dihydroquinolin-6-yl)methyl]ethenesulfonamide] | -6.5 | -3.5 | -3.3 | -3.7 | -2.1 | -1.9 | -3.2 | 149 to 151 |  |  |  |  |  | 
4 | CCN1C(=O)CCc2cc(CNS(=O)(=O)/C=C/c3cccc(Br)c3)ccc21 [Compound 2.070, (E)-2-(3-bromophenyl)-N-[(1-ethyl-2-oxo-3,4-dihydroquinolin-6-yl)methyl]ethenesulfonamide] | -8.1 | -4.1 | -6.1 | -5.5 | -4.8 | -3.8 | -5 | 144 to 147 |  |  |  |  |  | 
5 | CCCN1C(=O)CCc2cc(CNS(=O)(=O)c3ccc(Cl)cc3)ccc21 [Compound 3.004, 4-chloro-N-[(2-oxo-1-propyl-3,4-dihydroquinolin-6-yl)methyl]benzenesulfonamide] | -17.3 | -12.5 | -14.1 | -12.9 | -11.8 | -10.7 | -12.8 | 138 to 139 |  |  |  |  |  | 
6 | CCCN1C(=O)CCc2cc(CNS(=O)(=O)c3ccccc3Br)ccc21 [Compound 3.017, 2-bromo-N-[(2-oxo-1-propyl-3,4-dihydroquinolin-6-yl)methyl]benzenesulfonamide] | -5.8 | -3.1 | -3.1 | -2.5 | -1.8 | -2.1 | -2.7 | 157 to 159 |  |  |  |  |  | 
7 | CCCN1C(=O)CCc2cc(CNS(=O)(=O)/C=C/c3ccccc3)ccc21 [Compound 3.051, (E)-N-[(2-oxo-1-propyl-3,4-dihydroquinolin-6-yl)methyl]-2-phenyl-ethenesulfonamide] | -11.2 | -6.4 | -8.1 | -5.5 | -5.4 | -4.3 | -6.2 | 165 to 168 |  |  |  |  |  | 
8 | CCCN1C(=O)CCc2cc(CNS(=O)(=O)/C=C/c3ccc(Br)cc3)ccc21 [Compound 3.052, (E)-2-(4-bromophenyl)-N-[(2-oxo-1-propyl-3,4-dihydroquinolin-6-yl)methyl]ethenesulfonamide] | -9.6 | -4.6 | -4.5 | -4.5 | -2.2 | -2.5 | -4.1 | 150 to 152 |  |  |  |  |  | 
9 | CCCN1C(=O)CCc2cc(CNS(=O)(=O)c3cccs3)ccc21 [Compound 3.072, N-[(2-oxo-1-propyl-3,4-dihydroquinolin-6-yl)methyl]thiophene-2-sulfonamide] |  |  |  |  |  |  |  | 151 to 153 | -39.4 | -45.9 | -40.9 | -39.8 | -32.2 | -40.1
10 | CCCN1C(=O)CCc2cc(CNS(=O)(=O)c3ccc(Cl)s3)ccc21 [Compound 3.073, 5-chloro-N-[(2-oxo-1-propyl-3,4-dihydroquinolin-6-yl)methyl]thiophene-2-sulfonamide] |  |  |  |  |  |  |  | 144 to 147 | -44.6 | -54.9 | -52.1 | -53.3 | -48.7 | -51
11 | CCCN1C(=O)CCc2cc(CNS(=O)(=O)c3cccc4ccccc34)ccc21 [Compound 3.074, N-[(2-oxo-1-propyl-3,4-dihydroquinolin-6-yl)methyl]naphthalene-1-sulfonamide] |  |  |  |  |  |  |  | 176 to 179 | -8.6 | 0 | 1 | -1.5 | 0 | -1.4
12 | CCCn1c(=O)ccc2cc(CNS(=O)(=O)c3ccccc3)ccc21 [Compound 7.001, N-[(2-oxo-1-propyl-6-quinolyl)methyl]benzenesulfonamide] |  |  |  |  |  |  |  | 204 to 206 | -17.1 | -9.1 | -6.9 | -6.9 | -2.5 | -8.8
